Tests used:
[1] = molecular target: T1, wild type P450cam (Pseudomonas putida, UniProt P00183); experiment: biochemical; format: binding; conditions: Wild type; 200 μM DTT, 200 μM test compound, phosphate buffer; read-out: Vs DTT (percentage displacement of DTT bound to P-450)
Target sequence in this assay (P00183 whole entry): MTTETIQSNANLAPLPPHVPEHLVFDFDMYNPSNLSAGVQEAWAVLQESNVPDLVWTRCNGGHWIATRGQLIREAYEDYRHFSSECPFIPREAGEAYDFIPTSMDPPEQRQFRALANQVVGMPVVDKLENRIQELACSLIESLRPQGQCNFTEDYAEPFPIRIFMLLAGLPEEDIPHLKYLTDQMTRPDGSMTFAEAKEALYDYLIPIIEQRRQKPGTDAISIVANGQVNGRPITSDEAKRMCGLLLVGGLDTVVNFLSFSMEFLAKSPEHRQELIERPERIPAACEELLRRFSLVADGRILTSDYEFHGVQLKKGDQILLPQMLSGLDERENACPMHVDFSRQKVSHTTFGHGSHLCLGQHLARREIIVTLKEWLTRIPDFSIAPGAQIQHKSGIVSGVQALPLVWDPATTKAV

[2] = molecular target: P-450cam mutant Y96A (Pseudomonas putida, UniProt P00183, Y97A); experiment: biochemical; format: binding; conditions: Mutant Y96A, 200 μM DTT, 200 μM test compound, phosphate buffer; for percent displacement of bound DTT at 200 µM: read-out: Vs DTT (percentage displacement of DTT bound to P-450)
[3] = molecular target: T1, wild type P450cam; format: binding; conditions: Wild type; 200 μM test compound, phosphate buffer pH 7.4
Target sequence in this assay (P00183 whole entry): as above

[4] = molecular target: T2, P450cam mutant Y96A, C334A (Pseudomonas putida, UniProt P00183, C335A/Y97A); format: biochemical, P. putida; conditions: also contains C334A
T2 construct: reconstituted with putidaredoxin and putidaredoxin reductase
Procedure: A solution containing 10 μM putidaredoxin, 2 μM putidaredoxin reductase, 1 μM cytochrome P-450cam mono-oyxgenase (wild-type or mutant) and 1 mM diphenylmethane in 100 mM KC1, 20 mM KH2 PO4 pH7.4 was preincubated at 25° C. in a shaker for 5 min. The enzymatic reaction was initiated by firstly adding NADH to a total concentration of 2 mM. Further four aliquots of NADH (to increase the NADH concentration by 1 mM each time) were added in intervals of 5 min and the reaction quenched after 30 min by adding 0.5 ml chloroform. The chloroform layer was analysed by gas chromatography.
(§1) Reaction products for some substrate compounds have been purified by high performance liquid chromatography and identified by mass spectroscopy, nuclear magnetic resonance, and/or co-elution. […] Table 4(a) to 4(h) details the product distributions for mutant and substrate combinations where this has been elucidated to date.
All mutants listed below also contain the C334A mutation.
Turnover rate measured as NADH consumption rate
(nmole NADH/nmole P450cam/s).

[5] = molecular target: T2, P450cam mutant Y96A, C334A; format: biochemical, P. putida
Procedure: (§2) […] The enzymatic reaction was initiated by firstly adding NADH to a total concentration of 2 mM. Further four aliquots of NADH (to increase the NADH concentration by 1 mM each time) were added in intervals of 5 min and the reaction quenched after 30 min by adding 0.5 ml chloroform. The chloroform layer was analysed by gas chromatography.
as §1
(§3) Product structure and distributions following oxidation of substrates
(§4) active site mutants. All mutants shown below also contain the C334A

[6] = molecular target: T3, P450cam mutant Y96F, C334A (Pseudomonas putida, UniProt P00183, C335A/Y97F); format: biochemical, P. putida
T3 construct: reconstituted with putidaredoxin and putidaredoxin reductase
Procedure: as §2, §1, §3, §4

[7] = molecular target: T1, wild type P450cam; experiment: Product distribution following oxidation of substrates, WT; format: biochemical, P. putida; parameters: reconstituted with putidaredoxin and putidaredoxin reductase
Procedure: as §2, §1, §3
Target sequence in this assay (P00259 whole entry): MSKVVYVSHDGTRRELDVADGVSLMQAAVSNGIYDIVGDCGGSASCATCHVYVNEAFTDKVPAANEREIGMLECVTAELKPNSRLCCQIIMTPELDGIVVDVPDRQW
Target sequence in this assay (P00183 whole entry): as the sequence (P00183 whole entry) above
Target sequence in this assay (P16640 whole entry, further chain): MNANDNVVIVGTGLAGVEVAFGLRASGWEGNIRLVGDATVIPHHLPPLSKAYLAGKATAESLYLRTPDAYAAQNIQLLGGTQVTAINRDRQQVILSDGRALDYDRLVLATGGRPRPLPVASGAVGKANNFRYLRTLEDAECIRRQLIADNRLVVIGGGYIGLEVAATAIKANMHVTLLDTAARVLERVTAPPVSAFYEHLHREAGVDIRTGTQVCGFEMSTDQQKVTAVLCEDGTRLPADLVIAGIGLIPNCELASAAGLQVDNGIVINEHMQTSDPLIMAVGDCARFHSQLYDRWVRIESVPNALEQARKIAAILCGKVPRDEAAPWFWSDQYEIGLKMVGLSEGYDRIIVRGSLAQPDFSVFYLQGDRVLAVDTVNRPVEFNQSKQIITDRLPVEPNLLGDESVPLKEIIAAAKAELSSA

[8] = molecular target: T4, P450cam mutant Y96L, C334A (Pseudomonas putida, UniProt P00183, C335A/Y97L); experiment: Product distribution following oxidation of substrates, Y96L (also C334A); format: biochemical, P. putida
T4 construct: reconstituted with putidaredoxin and putidaredoxin reductase
Procedure: as §2, §1, §3, §4

[9] = molecular target: T5, P450cam mutant Y96V, C334A (Pseudomonas putida, UniProt P00183, C335A/Y97V); experiment: Product distribution following oxidation of substrates, Y96V (also C334A); format: biochemical, P. putida
T5 construct: reconstituted with putidaredoxin and putidaredoxin reductase
Procedure: as §2, §1, §3, §4

Chain of P-450cam mutant Y96A (P00183 2-415 Y97A): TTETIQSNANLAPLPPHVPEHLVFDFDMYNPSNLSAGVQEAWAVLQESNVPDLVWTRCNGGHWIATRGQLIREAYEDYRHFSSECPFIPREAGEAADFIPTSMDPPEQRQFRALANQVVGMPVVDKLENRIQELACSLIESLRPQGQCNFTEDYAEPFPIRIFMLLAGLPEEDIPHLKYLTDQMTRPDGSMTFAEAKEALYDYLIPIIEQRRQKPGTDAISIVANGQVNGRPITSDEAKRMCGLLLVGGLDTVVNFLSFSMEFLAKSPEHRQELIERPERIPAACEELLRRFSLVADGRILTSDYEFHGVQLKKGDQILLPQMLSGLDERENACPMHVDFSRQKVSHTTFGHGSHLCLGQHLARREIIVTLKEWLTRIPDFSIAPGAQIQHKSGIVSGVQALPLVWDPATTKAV
T2 sequence (P00259 whole entry): as the sequence (P00259 whole entry) above
T2 sequence (P00183 2-415 Y97A/C335A): as the sequence (P00183 2-415 Y97A) above, with C334A counted along it
T2 sequence (P16640 whole entry, further chain): as the sequence (P16640 whole entry, further chain) above
T4 sequence (P00259 whole entry): as the sequence (P00259 whole entry) above
T4 sequence (P16640 whole entry, further chain): as the sequence (P16640 whole entry, further chain) above
T4 sequence (P00183 2-415 Y97L/C335A): as the sequence (P00183 2-415 Y97A) above, with A96L, C334A counted along it
T5 sequence (P16640 whole entry): as the sequence (P16640 whole entry, further chain) above
T5 sequence (P00259 whole entry, further chain): as the sequence (P00259 whole entry) above
T5 sequence (P00183 2-415 Y97V/C335A): as the sequence (P00183 2-415 Y97A) above, with A96V, C334A counted along it
T3 sequence (P16640 whole entry): as the sequence (P16640 whole entry, further chain) above
T3 sequence (P00183 2-415 Y97F/C335A): as the sequence (P00183 2-415 Y97A) above, with A96F, C334A counted along it
T3 sequence (P00259 whole entry, further chain): as the sequence (P00259 whole entry) above

c1ccc(COCc2ccccc2)cc1 [Benzylether]
inhibition at 200 µM [1]: 5%

O=C(c1ccccc1)c1ccc2ccccc2c1 [Naphthylphenylketone]
percent displacement of bound DTT at 200 µM [2]: 5% | inhibition at 200 µM [1]: 5%

CC1CCCCC1 [Methylcyclohexane]
Vs DTT (percentage displacement of DTT bound to P-450) ([2]; 200 µM): 70% | percent displacement of bound DTT at 200 µM [2]: 60% | inhibition at 200 µM [1]: 50% | ΔSpin high/low (percentage of P-450 converted from low- to high-spin) [3]: 50%

C1CC[C@H]2CCCC[C@@H]2C1 [trans-Decahydro naphthalene]
percent displacement of bound DTT at 200 µM [2]: 70% | inhibition at 200 µM [1]: 10% | ΔSpin high/low (percentage of P-450 converted from low- to high-spin) [3]: 20%

c1ccc2c(c1)Cc1ccccc1-2 [Fluorene]
percent displacement of bound DTT at 200 µM [2]: 50%

CCCCCCCCCCCC [n-Dodecane]
percent displacement of bound DTT at 200 µM [2]: 5%

CCC(C)C [2-methyl butane]
Turnover rate measured as NADH consumption rate [4]: 4.6 nmole NADH/nmole P450cam/s

O=C1c2ccccc2-c2ccccc21 [9-Fluorenone]
percent displacement of bound DTT at 200 µM [2]: 5% | inhibition at 200 µM [1]: 20%

c1ccc(CNc2ccccc2)cc1 [N-Phenylbenzylamine]
inhibition at 200 µM [1]: 5%

C1=CC2C3C=CC(C3)C2C1 (centres unmarked) [Dicyclopentadiene]
percent displacement of bound DTT at 200 µM [2]: 90% | inhibition at 200 µM [1]: 80% | ΔSpin high/low (percentage of P-450 converted from low- to high-spin) [3]: 50%

CC1(C)C(=O)[C@]2(C)CC[C@H]1C2 [(1R)-(-)-Fenchone]
percent displacement of bound DTT at 200 µM [2]: 80% | inhibition at 200 µM [1]: 70% | ΔSpin high/low (percentage of P-450 converted from low- to high-spin) [3]: 40%

CC(=O)Oc1ccc2ccccc2c1 [2-Naphthylacetate]
percent displacement of bound DTT at 200 µM [2]: 5% | inhibition at 200 µM [1]: 5%

CCC(=O)Oc1cccc2ccccc12 [1-Naphthylpropionate]
percent displacement of bound DTT at 200 µM [2]: 20% | inhibition at 200 µM [1]: 20%

CCCCC(C)C [2-methyl hexane]
Turnover rate measured as NADH consumption rate [4]: 10.6 nmole NADH/nmole P450cam/s | Relative activity (WT = 1) [5]: 2.6 | Products (%): 2-methyl-2-hexanol ([5]; 2-methyl hexane): 74% | Products (%): 2-methyl-3-hexanol ([5]; 2-methyl hexane): 4% | Products (%): 5-methyl-2-hexanol ([5]; 2-methyl hexane): 8% | Products (%): 5-methyl-2-hexanone ([5]; 2-methyl hexane): 14% | Relative activity (WT = 1) [6]: 2.3 | Products (%): 2-methyl-2-hexanol ([6]; 2-methyl hexane): 72% | Products (%): 2-methyl-3-hexanol ([6]; 2-methyl hexane): 7% | Products (%): 5-methyl-2-hexanol ([6]; 2-methyl hexane): 5% | Products (%): 5-methyl-2-hexanone ([6]; 2-methyl hexane): 16%

CC(=O)Oc1cccc2ccccc12 [1-Naphthylacetate]
percent displacement of bound DTT at 200 µM [2]: 5% | inhibition at 200 µM [1]: 5%

O=C1c2ccccc2Cc2ccccc21 [Anthrone]
percent displacement of bound DTT at 200 µM [2]: 5% | inhibition at 200 µM [1]: 5%

CCCCCCCCCCC [n-Undecane]
percent displacement of bound DTT at 200 µM [2]: 20%

O=Cc1ccc2c(c1)Cc1ccccc1-2 [2-Fluorencarboxzaldehyde]
percent displacement of bound DTT at 200 µM [2]: 50%

C(=C/c1ccccc1)/c1ccccc1 [cis-Stilbene]
percent displacement of bound DTT at 200 µM [2]: 50% | inhibition at 200 µM [1]: 20%

CCc1cccc2ccccc12 [1-Ethylnaphthalene]
percent displacement of bound DTT at 200 µM [2]: 20%

O=C(Oc1ccccc1)c1ccccc1 [Phenylbenzoate]
inhibition at 200 µM [1]: 5%

C1=Cc2ccccc2CC1 [1,2-Dihydronaphthalene]
percent displacement of bound DTT at 200 µM [2]: 90% | inhibition at 200 µM [1]: 20% | ΔSpin high/low (percentage of P-450 converted from low- to high-spin) [3]: 5%

c1ccc(C2CCCCC2)cc1 [Cyclohexylbenzene]
Total products [7]: 0.8 area/10^5 | Products (%): Cis-4-ol ([7]; cyclohexylbenzene): 12% | Products (%): Trans-4-ol ([7]; cyclohexylbenzene): 25% | Total products [8]: 10.4 area/10^5 | Products (%): Cis-4-ol ([8]; cyclohexylbenzene): 16% | Products (%): Trans-4-ol ([8]; cyclohexylbenzene): 23% | inhibition at 200 µM [1]: 20% | Total products [9]: 12.5 area/10^5 | Products (%): Cis-4-ol ([9]; cyclohexylbenzene): 23% | Products (%): Trans-4-ol ([9]; cyclohexylbenzene): 10% | ΔSpin high/low (percentage of P-450 converted from low- to high-spin) [3]: 20% | Total products [5]: 7.4 area/10^5 | Products (%): 3-ol ([5]; cyclohexylbenzene): 20% | Products (%): Cis-4-ol ([5]; cyclohexylbenzene): 45% | Products (%): Trans-4-ol ([5]; cyclohexylbenzene): 15% | Total products [6]: 1.1 area/10^5 | Products (%): Cis-4-ol ([6]; cyclohexylbenzene): 13% | Products (%): Trans-4-ol ([6]; cyclohexylbenzene): 6%

From US6100074A, “Mutant mono-oxygenase cytochrome P-450 cam” (BG plc, priority 1994, dated 2000)
